Assay results reported in patent US6521443B1, “Growth medium for lactobacilli containing amino acids, nucleosides and iron” (Nestec S.A., priority 1999, dated 2003).

Columns and labels:
Format in all cases: cell-based
[1] = system: Lactobacilli; experiment: growth of Lactobacilli in supplemented milk (general trials); conditions: addition of ribonucleosides to milk
Procedure: In order to find the identity of other stimulatory substances, several trials were performed with ribonucleotide precursors, that is free bases such as adenine, guanine, cytosine, thymine, and uracil, ribonucleosides such as adenosine, cytidine, uridine, and guanosine, and 2′-deoxyribonucleosides such as deoxyadenosine, deoxyguanosine, deoxycytidine, deoxyuridine and thymidine. These compounds were supplemented to milk as concentrated alkaline or neutral solutions at different concentrations.
This finding confirmed the hypothesis that the low level of purines in milk negatively affects bacterial growth therein. […] Without being bound by theory, it is believed that the high content of orotic acid allows the synthesis of pyrimidine bases. No significant differences in pH-values were detected by the addition of free bases and deoxyribonucleosides between aerobic and anaerobic conditions. […] The positive effect was observed particularly with the addition of ribonucleosides in anaerobic environment.
(§1) The growth results were estimated by cell counts and a final pH measurement performed after 24 hours incubation at 37 ° C. Rapid Analysis of Bacterial Impedance Technique (RABIT) (Don Whitley Scientific, West Yorkshire, UK) was used to perform trials with skim and whole UHT milk for 24 hours at 37° C.

[2] = system: L. johnsonii ATCC 33200; experiment: omission technique with RABIT in skim milk; conditions: skim milk with four ribonucleosides and ferrous sulphate
Procedure: as §1
In order to determine those amino acids having an essential role for L. johnsonii growth in milk, the “omission technique” (Reiter, B. & Oram, J. D, I. Dairy Res, 29 (1962), 63-77) was applied by culturing the strain ATCC 33200^T in skim milk, adding four ribonucleosides and ferrous sulphate (positive control), supplemented with the mixture of 19 amino acids described above deprived of one particular component at each given time.

[3] = system: L. johnsonii; experiment: growth assay in milk, L. johnsonii (strain not specified)
Procedure: Skim milk (Difco) 10% w/v in sterile water and whole fat UHT milk (Parmalat, Italy) were used to perform the growth assays. The milk tubes were 1% inoculated from an overnight MRS culture washed twice and finally re-suspended with the same amount of sterile distilled water in order to avoid nutrient transfer via the medium.
Milk tubes were incubated aerobically in a thermostat (Sorvall Heraeus) at 37° C. for 24 hours, or anaerobically in an anaerobic incubator (Model 1024, Forma Scientific, USA) at 37° C. for 24 hours.
The chemicals supplemented to the milk were added as concentrated solutions prepared according to standard methods, i.e., the Merck Index instructions. The final pH of milk was adjusted to 6.8 after supplementation using an aqueous 4N sodium hydroxide solution. The initial pH of the 10% skim milk solution and whole fat UHT milk was 6.8 and 6.7, respectively.
as §1
A final pH of 4.1 was measured after amino acids supplementation, but the cell count was still not satisfactory. The cell count when a 10% skim milk with 19 amino acids added increased from 1.0×10^7 CFU/ml to 40×10^7 CFU/ml, which is a factor of 40 increase but is less than the factor of 300 increase observed with 10% skim milk and yeast extract.

`Nc1ncnc2c1ncn2[C@@H]1O[C@H](CO)[C@@H](O)[C@H]1O` [adenosine] was tested. Which “improvement of growth conditions in milk” value [1] did it give?
Its value is “strongest effect”.

For `C[C@H](N)C(=O)O` [alanine], which “effect of amino acid on growth (RABIT, omission technique)” value (from here on “effect of amino acid on growth”) [2] is on record?
Its value is “excellent results”.

Which results are given for `N[C@@H](CS)C(=O)O` [cysteine]?
pH in the presence of cysteine ([3]; aerobic conditions): 3.9; pH in absence of cysteine ([3]; anaerobic conditions): 4.3; effect of amino acid on growth (RABIT, omission technique) [2]: excellent results

With `Nc1nc2c(ncn2[C@@H]2O[C@H](CO)[C@@H](O)[C@H]2O)c(=O)[nH]1` [guanosine] as the molecule, how does the “improvement of growth conditions in milk” value [1] read?
Its value is “strongest effect”.

How did the “effect of amino acid on growth” value [2] turn out when `CC[C@H](C)[C@H](N)C(=O)O` [isoleucine] was run?
Its value is “excellent results”.

`N[C@@H](CO)C(=O)O` [serine] was tested. Which “effect of amino acid on growth” value [2] did it give?
The value was “excellent results”.

`O=C(O)CS` [thioglycollic acid] was tested. Which cell counts ([3]; aerobic conditions, final concentration 0.5% v/v, replacing cysteine) did it give?
The cell counts was “more than 100×10^7 CFU/ml”.
